Laboratory results as given in patent US20240398757A1 (COCRYSTAL PHARMA, INC., priority 2022, published 2024).

biological target: T1, SARS2 protease (Severe acute respiratory syndrome coronavirus 2, UniProt P0DTD1); experiment: SARS-CoV-2 protease inhibition assay (SARS2 FRET protease assay); assay type: biochemical; settings: IC50 (μM), SARS2 protease 30 nM, peptide substrate 1.3 μM, 120 minutes at 37° C., compounds 20 μM to 0.075 nM
T1 construct: SARS2 protease was added to a final concentration of 30 nM

Row | SMILES | IC50
1 | CC(C)C[C@H](NC(=O)O[C@H](c1ccc(F)cc1)C(F)(F)c1cccc(Cl)c1)C(=O)N[C@H](C=O)C[C@@H]1CCNC1=O [Compound A149] | 0.0001 µM
2 | CCCC[C@H](NC(=O)O[C@@H](c1ccccc1)C(F)(F)c1cccc(Cl)c1)C(=O)N[C@H](C=O)C[C@@H]1CCCNC1=O [Compound A150] | < 0.0001 µM
3 | CCCCC[C@H](NC(=O)O[C@@H](c1ccccc1)C(F)(F)c1cccc(Cl)c1)C(=O)N[C@H](C=O)C[C@@H]1CCNC1=O [Compound A151] | 0.0002 µM
4 | CC(C)C[C@H](NC(=O)O[C@H](c1ccccc1)C(F)(F)c1cccc(F)c1)C(=O)N[C@H](C=O)C[C@@H]1CCNC1=O [Compound A152] | 0.0078 µM
5 | CCC[C@H](NC(=O)O[C@@H](c1ccccc1)C(F)(F)c1cccc(Cl)c1)C(=O)N[C@H](C=O)C[C@@H]1CCNC1=O [Compound A153] | 0.0006 µM
6 | O=C[C@H](C[C@@H]1CCCNC1=O)NC(=O)[C@H](CC1CCCCC1)NC(=O)O[C@@H](c1ccccc1)C(F)(F)c1cccc(Cl)c1 [Compound A154] | 0.334 µM
7 | O=C[C@H](C[C@@H]1CCCNC1=O)NC(=O)[C@H](CC1CCCCC1)NC(=O)O[C@H](c1ccccc1)C(F)(F)c1cccc(Cl)c1 [Compound A155] | 0.611 µM
8 | O=C[C@H](C[C@@H]1CCNC1=O)NC(=O)[C@H](CC1CC1)NC(=O)O[C@@H](c1ccccc1)C(F)(F)c1cccc(Cl)c1 [Compound A156] | 0.289 µM
9 | O=C[C@H](C[C@@H]1CCNC1=O)NC(=O)[C@H](CC1CC1)NC(=O)O[C@H](c1ccccc1)C(F)(F)c1cccc(Cl)c1 [Compound A157] | 0.0002 µM
10 | CC(C)C[C@H](NC(=O)O[C@@H](c1ccccc1)C(C)(C)c1cccc(Cl)c1)C(=O)N[C@H](C=O)C[C@@H]1CCCNC1=O [Compound A158] | 0.002 µM
11 | CCCC[C@H](NC(=O)O[C@@H](c1ccc(F)cc1)C(F)(F)c1cccc(Cl)c1)C(=O)N[C@H](C=O)C[C@@H]1CCNC1=O [Compound A159] | 0.003 µM
12 | CCCC[C@H](NC(=O)O[C@H](c1ccc(F)cc1)C(F)(F)c1cccc(Cl)c1)C(=O)N[C@H](C=O)C[C@@H]1CCNC1=O [Compound A160] | 0.47 µM
13 | O=C[C@H](C[C@H]1CCNC1=O)NC(=O)[C@H](CC1CCCCC1)NC(=O)OC(c1ccccc1)C(F)(F)c1cccc(Cl)c1 (stereo partly drawn) [Compound A161] | 0.582 µM
14 | O=C[C@H](C[C@@H]1CCNC1=O)NC(=O)[C@H](CCC(F)F)NC(=O)OC(c1ccccc1)C(F)(F)c1cccc(Cl)c1 (stereo partly drawn) [Compound A163, 2-(3-chlorophenyl)-2,2-difluoro-1-phenylethyl ((S)-5,5-difluoro-1-oxo-1-(((S)-1-oxo-3-((S)-2-oxopyrrolidin-3-yl)propan-2-yl)amino)pentan-2-yl)carbamate] | 0.017 µM
15 | CCC[C@H](NC(=O)O[C@@H](c1ccccc1)C(F)(F)c1cccc(F)c1)C(=O)N[C@H](C=O)C[C@@H]1CCNC1=O [Compound A166] | 0.0025 µM
16 | CCCC[C@H](NC(=O)OC(c1ccccc1)C(F)(F)c1cccc(Cl)c1)C(=O)N[C@@H](C[C@H]1CCNC1=O)C(=O)C(=O)NC1CC1 (stereo partly drawn) [Compound A168] | 0.75 µM
17 | O=C(N[C@@H](CC1CCCCC1)C(=O)N[C@@H](C[C@H]1CCNC1=O)C(=O)C(=O)NC1CC1)OC(c1ccccc1)C(F)(F)c1cccc(Cl)c1 (stereo partly drawn) [Compound A169] | 1.25 µM
18 | CC(C)C[C@H](NC(=O)OC(c1ccccc1)C(F)(F)c1cccc(C2CC2)c1)C(=O)N[C@@H](C[C@@H]1CCNC1=O)C(=O)C(=O)NC1CC1 (stereo partly drawn) [Compound A170] | 0.0002 µM
19 | CC(C)C[C@H](NC(=O)OC(c1ccccc1)C(C)(C)c1cccc(C(F)(F)F)c1)C(=O)N[C@H](C=O)C[C@@H]1CCNC1=O (stereo partly drawn) [Compound A171] | 0.0001 µM
20 | CCC[C@H](NC(=O)O[C@H](c1ccccc1)C(F)(F)c1cccc(F)c1)C(=O)N[C@H](C=O)C[C@@H]1CCNC1=O [Compound A172] | 0.0185 µM
21 | CCNC(=O)C(=O)[C@H](C[C@@H]1CCNC1=O)NC(=O)[C@H](CC1CC1)NC(=O)O[C@@H](c1ccccc1)C(F)(F)c1cccc(Cl)c1 [Compound A174] | 0.0014 µM
22 | O=C(N[C@@H](CC1CCCCC1)C(=O)N[C@@H](C[C@@H]1CCNC1=O)C(=O)C(=O)NC1CC1)O[C@H](c1ccccc1)C(F)(F)c1cccc(Cl)c1 [Compound A175] | 1.36 µM
23 | O=C(N[C@@H](CC1CC1)C(=O)N[C@@H](C[C@@H]1CCNC1=O)C(=O)C(=O)NC1CC1)O[C@@H](c1ccccc1)C(F)(F)c1cccc(Cl)c1 [Compound A176] | 0.002 µM
24 | CCCC[C@H](NC(=O)O[C@H](c1ccccc1)C(C)(C)c1cccc(Cl)c1)C(=O)N[C@@H](C[C@@H]1CCNC1=O)C(=O)C(=O)NC1CC1 [Compound A178] | 1.04 µM
25 | O=C(N[C@@H](CCC(F)F)C(=O)N[C@@H](C[C@@H]1CCNC1=O)C(=O)C(=O)NC1CC1)OC(c1ccccc1)C(F)(F)c1cccc(Cl)c1 (stereo partly drawn) [Compound A179, 2-(3-chlorophenyl)-2,2-difluoro-1-phenylethyl ((S)-1-(((S)-4-(cyclopropylamino)-3,4-dioxo-1-((S)-2-oxopyrrolidin-3-yl)butan-2-yl)amino)-5,5-difluoro-1-oxopentan-2-yl)carbamate] | 0.006 µM
26 | O=C(N[C@@H](CCCF)C(=O)N[C@@H](C[C@@H]1CCNC1=O)C(=O)C(=O)NC1CC1)OC(c1ccccc1)C(F)(F)c1cccc(Cl)c1 (stereo partly drawn) [Compound A180] | 0.095 µM

Row | SMILES | IC50
27 | CC(C)C[C@H](NC(=O)OC(C(C)C)C(F)(F)c1cccc(C2CC2)c1)C(=O)N[C@@H](C[C@@H]1CCNC1=O)C(=O)C(=O)NC1CC1 (stereo partly drawn) [Compound A181] | 0.52 µM
28 | CC(C)C[C@H](NC(=O)OC(c1ccccc1)C(F)(F)c1cccc(C(C)C)c1)C(=O)N[C@@H](C[C@@H]1CCNC1=O)C(=O)C(=O)NC1CC1 (stereo partly drawn) [Compound A182] | 0.001 µM
29 | CCCC[C@H](NC(=O)OC(c1ccccc1)C(F)(F)c1cccc(Cl)c1)C(=O)N[C@H](C=O)C[C@H]1CCNC1=O (stereo partly drawn) [Compound A183] | 0.019 µM
30 | CCCC[C@H](NC(=O)OC(c1ccccc1)C(F)(F)c1cccc(Cl)c1)C(=O)N[C@@H](C[C@H]1CCNC1=O)C(=O)C(=O)NCC (stereo partly drawn) [Compound A185] | 0.91 µM
31 | CCCC(=O)OC([C@H](C[C@@H]1CCNC1=O)NC(=O)[C@H](CC1CCCCC1)NC(=O)O[C@H](c1ccccc1)C(F)(F)c1cccc(Cl)c1)S(=O)(=O)O (stereo partly drawn) [Compound A186] | 0.319 µM
32 | CCNC(=O)C(=O)[C@H](C[C@H]1CCNC1=O)NC(=O)[C@H](CC(C)C)NC(=O)OC(c1ccccc1)C(F)(F)c1cccc(Cl)c1 (stereo partly drawn) [Compound A188] | 0.392 µM
33 | CCCC[C@H](NC(=O)OC(c1ccccc1)C(C)(C)c1cccc(Cl)c1)C(=O)N[C@@H](C[C@@H]1CCNC1=O)C(=O)C(=O)NC1CC1 (stereo partly drawn) [Compound A189] | 1.37 µM
34 | CC(C)C[C@H](NC(=O)OC(c1ccccc1)C(F)(F)c1cccc(-c2ccccc2)c1)C(=O)N[C@@H](C[C@@H]1CCNC1=O)C(=O)C(=O)NC1CC1 (stereo partly drawn) [Compound A191] | 0.006 µM
35 | CCCC[C@H](NC(=O)OC(c1ccccc1)C(F)(F)c1cccc(Cl)c1)C(=O)NC(C)(C=O)CC1CCNC1=O (stereo partly drawn) [Compound A192] | 0.978 µM
36 | CC(C)C[C@H](NC(=O)O[C@@H](c1ccccc1)C(F)(F)c1cccc(C(C)C)c1)C(=O)N[C@@H](C[C@@H]1CCNC1=O)C(=O)C(=O)NC1CC1 [Compound A193] | 0.135 µM
37 | CC(C)C[C@H](NC(=O)O[C@H](c1ccccc1)C(F)(F)c1cccc(C(C)C)c1)C(=O)N[C@@H](C[C@@H]1CCNC1=O)C(=O)C(=O)NC1CC1 [Compound A194] | 0.005 µM
38 | CCCC[C@H](NC(=O)O[C@@H](c1ccccc1)C(F)(F)c1cccc(Cl)c1)C(=O)N[C@@H](C[C@@H]1CCCNC1=O)C(=O)C(=O)NC1CC1 [Compound A195] | 0.211 µM
39 | CC(C)C[C@H](NC(=O)OC(c1ccccc1)C(C)(C)c1cccc(C(F)(F)F)c1)C(=O)N[C@@H](C[C@@H]1CCNC1=O)C(=O)C(=O)NC1CC1 (stereo partly drawn) [Compound A197] | 0.027 µM
40 | CC(C)C[C@H](NC(=O)OC(C(C)C)C(F)(F)c1cccc(C2CC2)c1)C(=O)N[C@H](C=O)C[C@@H]1CCNC1=O (stereo partly drawn) [Compound A198] | 0.006 µM
41 | CCCC[C@H](NC(=O)O[C@@H](c1ccc(F)cc1)C(F)(F)c1cccc(Cl)c1)C(=O)N[C@@H](C[C@@H]1CCNC1=O)C(=O)C(=O)NC1CC1 [Compound A199] | 0.494 µM
42 | CCCC[C@H](NC(=O)O[C@H](c1ccc(F)cc1)C(F)(F)c1cccc(Cl)c1)C(=O)N[C@@H](C[C@@H]1CCNC1=O)C(=O)C(=O)NC1CC1 [Compound A200] | 0.0004 µM
43 | CCCC[C@H](NC(=O)O[C@H](c1cccc(F)c1)C(F)(F)c1cccc(F)c1)C(=O)N[C@H](C=O)C[C@@H]1CCNC1=O [Compound A201] | 0.001 µM
44 | CC(C)C[C@H](NC(=O)O[C@@H](c1ccc(F)cc1)C(C)(C)c1cccc(Cl)c1)C(=O)N[C@H](C=O)C[C@@H]1CCNC1=O [Compound A202] | 0.021 µM
45 | NC(=O)C(=O)[C@H](C[C@@H]1CCNC1=O)NC(=O)[C@H](CC1CCCCC1)NC(=O)OC(c1ccccc1)C(F)(F)c1cccc(Cl)c1 (stereo partly drawn) [Compound A204] | 0.001 µM
46 | O=C[C@H](C[C@@H]1CCNC1=O)NC(=O)[C@H](CC1CCC1)NC(=O)O[C@H](c1ccccc1)C(F)(F)c1cccc(Cl)c1 [Compound A205] | 0.0002 µM
47 | CCNC(=O)C(=O)[C@H](C[C@H]1CCNC1=O)NC(=O)[C@H](CC1CCCCC1)NC(=O)OC(c1ccccc1)C(F)(F)c1cccc(Cl)c1 (stereo partly drawn) [Compound A207] | 0.764 µM
48 | CCC[C@H](NC(=O)O[C@H](c1ccccc1)C(F)(F)c1cccc(Cl)c1)C(=O)N[C@H](C=O)C[C@@H]1CCNC1=O [Compound A208] | 0.004 µM
49 | CCC(=O)OC([C@H](C[C@@H]1CCNC1=O)NC(=O)[C@H](CC1CCCCC1)NC(=O)O[C@@H](c1ccccc1)C(F)(F)c1cccc(Cl)c1)S(=O)(=O)O (stereo partly drawn) [Compound A211] | 0.504 µM
50 | CCC(=O)OC([C@H](C[C@@H]1CCNC1=O)NC(=O)[C@H](CC1CCCCC1)NC(=O)O[C@H](c1ccccc1)C(F)(F)c1cccc(Cl)c1)S(=O)(=O)O (stereo partly drawn) [Compound A212] | 4.15 µM
51 | CCCC[C@H](NC(=O)O[C@@H](c1ccccc1)C(F)(F)c1cccc(Cl)c1)C(=O)N[C@@H](C[C@@H]1CCNC1=O)C(OC(=O)CC)S(=O)(=O)O (stereo partly drawn) [Compound A213] | 5.02 µM
